Measured values: publication PMC4729137, “Functional analysis of androgen receptor mutations that confer anti-androgen resistance identified in circulating cell-free DNA from prostate cancer patients” (Genome Biology, 2016)
Where a chain is given by its changes, count along the chain named.

Key:
Assay in all cases: cell-based
H875Y/T878A-AR = biological target: T1, H875Y/T878A-AR (Homo sapiens, UniProt P10275, H875Y/T878A)
T1 sequence (P10275 1-920 H875Y/T878A): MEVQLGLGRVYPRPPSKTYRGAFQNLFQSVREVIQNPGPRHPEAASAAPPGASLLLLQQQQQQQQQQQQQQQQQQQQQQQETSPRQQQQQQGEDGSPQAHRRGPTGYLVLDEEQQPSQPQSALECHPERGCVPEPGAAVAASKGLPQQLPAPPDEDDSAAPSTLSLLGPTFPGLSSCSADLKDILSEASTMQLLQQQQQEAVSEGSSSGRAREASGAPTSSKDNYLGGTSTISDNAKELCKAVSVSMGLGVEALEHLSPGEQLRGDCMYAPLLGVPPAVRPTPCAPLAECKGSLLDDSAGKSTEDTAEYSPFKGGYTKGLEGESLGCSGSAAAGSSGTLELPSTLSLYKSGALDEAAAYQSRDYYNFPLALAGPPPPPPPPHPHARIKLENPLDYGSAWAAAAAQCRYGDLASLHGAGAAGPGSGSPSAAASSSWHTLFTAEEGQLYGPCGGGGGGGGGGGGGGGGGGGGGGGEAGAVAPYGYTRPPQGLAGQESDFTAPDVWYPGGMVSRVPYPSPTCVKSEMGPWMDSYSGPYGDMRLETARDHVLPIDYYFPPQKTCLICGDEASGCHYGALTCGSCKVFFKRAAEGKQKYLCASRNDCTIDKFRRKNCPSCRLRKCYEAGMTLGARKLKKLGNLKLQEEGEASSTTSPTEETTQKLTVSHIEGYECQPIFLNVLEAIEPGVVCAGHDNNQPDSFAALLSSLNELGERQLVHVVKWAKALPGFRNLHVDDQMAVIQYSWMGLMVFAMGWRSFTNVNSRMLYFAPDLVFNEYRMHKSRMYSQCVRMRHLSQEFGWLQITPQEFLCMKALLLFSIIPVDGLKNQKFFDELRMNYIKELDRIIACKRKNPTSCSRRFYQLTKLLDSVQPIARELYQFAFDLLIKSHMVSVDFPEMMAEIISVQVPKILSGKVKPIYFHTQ

T878A-AR = biological target: T2, T878A-AR (Homo sapiens, UniProt P10275, T878A)
T2 sequence (P10275 1-920 T878A): T1 sequence (P10275 1-920 H875Y/T878A) with Y875H

WT-AR = biological target: T3, WT-AR (Homo sapiens, UniProt P10275)
T3 sequence (P10275 1-920): T1 sequence (P10275 1-920 H875Y/T878A) with Y875H, A878T

With `C[C@]12CCC(=O)C=C1CC[C@@H]1[C@@H]2[C@@H](O)C[C@@]2(C)[C@H]1CC[C@]2(O)C(=O)CO` [hydrocortisone] the EC50 (H875Y/T878A-AR) was 105 nM, the EC50 (T878A-AR) was greater than 500 nM and the EC50 (WT-AR) was greater than 500 nM.
